# Reference: patent US7432276B2, “ABCA1 elevating compounds” (CV Therapeutics, Inc., priority 2005, dated 2008)
# Test system: ABCA1 mRNA
# Assay: ABCA1 mRNA induction in THP-1 cells, QuantiGene branched DNA assay
# Assay type: cell-based
# Details: 10 μM test compound, 18-20 hours
# Procedure: Modulation of expression of ABCA1 mRNA levels by the compounds of the invention was determined in the following assays.
# Induction of ABC1 in THP-1 cells, was measured using QuantiGene® branched DNA assay as per manufacturer's instructions. Cultures of THP-1 were grown to subconfluence in DMEM/10% FBS before replacement with DMEM/BSA and 10 and 3 μM concentrations of the test compounds in DMSO for 18-20 hours. After treatment of cells with compounds, the cells were lysed with lysis buffer at 37° C. for 20 minutes. The cell lysate and ABCA1 specific probe (Genospectra, Inc., Fremont, Calif.) mix were added to the 96 well capture plate and hybridized at 53° C. for 16-18 hours. The signal was amplified using the amplifier and label probes provided with the QuantiGene® assay followed by addition of a luminescent alkaline phosphatase substrate, dioxitane. Luminescence was quantified in Victor V plate reader.
# Step 1 • Cells are lysed to release mRNA in the presence of target probes. Target mRNA from lysed cells was then captured by hybridization and transferred to the Capture Plate.
# Step 2 • Signal amplification was performed by hybridization of the bDNA Amplifier and Label Probe.
# Step 3 • Addition of chemiluminescence substrate yielded a QuantiGene® signal proportional to the amount of mRNA present in the sample.
# Table 1 presents the relative fold increase in ABCA1 expression over DMSO for various compounds of the invention when tested at a concentration of […].
row,Compound,ABCA1 Induction Fold Increase over DMSO Vehicle [FOLD INCREASE]
1,"COc1cccc2c1[C@H]1Nc3ccc(OC(F)(F)F)cc3C(C)(C)[C@H]1CO2 [Number 57, ((12aS,6aR)-1-methoxy-7,7-dimethyl(7,12,12a,6a-tetrahydrochromano[4,3-b]quinolin-9-yloxy))trifluoromethane]",6.1
2,"COc1cccc2c1OCC1C2Nc2ccc(C(N)=S)cc2C1(C)C (centres unmarked) [Number 58, amino(4-methoxy-7,7-dimethyl(7,12,12a,6a-tetrahydrochromano[4,3-b]quinolin-9-yl))methane-1-thione]",6.2
3,"CNS(=O)(=O)Cc1ccc2c(c1)C(C)(C)C1COc3c(OC)cccc3C1N2 (centres unmarked) [Number 59, {[(4-methoxy-7,7-dimethyl(7,12,12a,6a-tetrahydrochromano[4,3-b]quinolin-9-yl))methyl]sulfonyl}methylamine]",6.1
4,"COc1cccc2c1OCC1C2Nc2ccc(-c3cccc(C(=O)OC(C)C)c3)cc2C1(C)C (centres unmarked) [Number 60, methylethyl 3-(4-methoxy-7,7-dimethyl-7,12,12a,6a-tetrahydrochromano[4,3-b]quinolin-9-yl)benzoate]",4.4
5,"COc1cccc2c1[C@H]1Nc3ccc(-c4cnco4)cc3C(C)(C)[C@H]1CO2 [Number 62, (12aS,6aR)-1-methoxy-7,7-dimethyl-9-(1,3-oxazol-5-yl)-7,12,12a,6a-tetrahydrochromano[4,3-b]quinoline]",10.6
6,"COc1cccc2c1[C@H]1Nc3cc(C#N)ccc3C(C)(C)[C@H]1CO2 [Number 63, (12aS,6aR)-1-methoxy-7,7-dimethyl-7,12,12a,6a-tetrahydrochromano[4,3-b]quinoline-10-carbonitrile]",3.5
7,"COc1ccc(Br)c2c1OC[C@@H]1[C@H]2Nc2ccc(C(O)(C(F)(F)F)C(F)(F)F)cc2C1(C)C [Number 64, 2-((6aS,12aR)-1-bromo-4-methoxy-7,7-dimethyl(7,12,12a,6a-tetrahydrochromano[4,3-b]quinolin-9-yl))-1,1,1,3,3,3-hexafluoropropan-2-ol]",2.5
8,"COc1cc(Br)cc2c1OC[C@@H]1[C@H]2Nc2ccc(C(O)(C(F)(F)F)C(F)(F)F)cc2C1(C)C [Number 65, 2-((6aS,12aR)-2-bromo-4-methoxy-7,7-dimethyl(7,12,12a,6a-tetrahydrochromano[4,3-b]quinolin-9-yl))-1,1,1,3,3,3-hexafluoropropan-2-ol]",3.2
9,"COc1cc(Br)cc2c1OC[C@H]1[C@H]2Nc2ccc(C(O)(C(F)(F)F)C(F)(F)F)cc2C1(C)C [Number 66, 2-((12aR,6aR)-2-bromo-4-methoxy-7,7-dimethyl(7,12,12a,6a-tetrahydrochromano[4,3-b]quinolin-9-yl))-1,1,1,3,3,3-hexafluoropropan-2-ol]",2.5
10,"CC1(C)c2cc(C(O)(C(F)(F)F)C(F)(F)F)ccc2NC2c3cc(F)cc(F)c3OCC21 (centres unmarked) [Number 67, 2-(2,4-difluoro-7,7-dimethyl(7,12,12a,6a-tetrahydrochromano[4,3-b]quinolin-9-yl))-1,1,1,3,3,3-hexafluoropropan-2-ol]",3.3
11,"CC1(C)c2cc(C(O)(C(F)(F)F)C(F)(F)F)ccc2NC2c3cc(Cl)cc(Cl)c3OCC21 (centres unmarked) [Number 68, 2-(2,4-dichloro-7,7-dimethyl(7,12,12a,6a-tetrahydrochromano[4,3-b]quinolin-9-yl))-1,1,1,3,3,3-hexafluoropropan-2-ol]",2.7
12,"Cc1cc(Cl)cc2c1OCC1C2Nc2ccc(C(O)(C(F)(F)F)C(F)(F)F)cc2C1(C)C (centres unmarked) [Number 69, 2-(2-chloro-4,7,7-trimethyl(7,12,12a,6a-tetrahydrochromano[4,3-b]quinolin-9-yl))-1,1,1,3,3,3-hexafluoropropan-2-ol]",2.6
13,"CC1(C)c2cc(C(O)(C(F)(F)F)C(F)(F)F)ccc2N[C@H]2c3ccccc3OC[C@H]21 [Number 70, 2-((6aS,12aR)-7,7-dimethyl(7,12,12a,6a-tetrahydrochromano[4,3-b]quinolin-9-yl))-1,1,1,3,3,3-hexafluoropropan-2-ol]",4.0
14,"COc1cccc2c1[C@H]1Nc3ccc(-c4nnn[nH]4)cc3C(C)(C)[C@H]1CO2 [Number 71, (12aS,6aR)-1-methoxy-7,7-dimethyl-9-(1,2,3,4-tetraazol-5-yl)-7,12,12a,6a-tetrahydrochromano[4,3-b]quinoline]",9.5
15,"COc1cccc2c1[C@H]1Nc3ccc(N4CCS(=O)(=O)CC4)cc3C(C)(C)[C@H]1CO2 [Number 72, 4-((12aS,6aR)-1-methoxy-7,7-dimethyl-7,12,12a,6a-tetrahydrochromano[4,3-b]quinolin-9-yl)-1,4-thiazaperhydroine-1,1-dione]",8.4
16,"COc1cccc2c1[C@H]1Nc3ccc(-c4csnn4)cc3C(C)(C)[C@H]1CO2 [Number 73, (12aS,6aR)-1-methoxy-7,7-dimethyl-9-(1,2,3-thiadiazol-4-yl)-7,12,12a,6a-tetrahydrochromano[4,3-b]quinoline]",8.0
17,"COc1cccc2c1C1Nc3ccc(-c4nncn4C)cc3C(C)(C)C1CO2 (centres unmarked) [Number 74, 1-methoxy-7,7-dimethyl-9-(4-methyl(1,2,4-triazol-3-yl))-7,12,12a,6a-tetrahydrochromano[4,3-b]quinoline]",7.9
18,"COc1cccc2c1OCC1C2Nc2ccc(Br)cc2C1(C)C (centres unmarked) [Number 75, 9-bromo-4-methoxy-7,7-dimethyl-7,12,12a,6a-tetrahydrochromano[4,3-b]quinoline]",7.4
19,"COc1cccc2c1OCC1C2Nc2ccc(Cc3nnn[nH]3)cc2C1(C)C (centres unmarked) [Number 76, 4-methoxy-7,7-dimethyl-9-(1,2,3,4-tetraazol-5-ylmethyl)-7,12,12a,6a-tetrahydrochromano[4,3-b]quinoline]",6.0
20,"COc1cc(-c2ccccc2)cc2c1OC[C@H]1[C@@H]2Nc2ccc(C(O)(C(F)(F)F)C(F)(F)F)cc2C1(C)C [Number 77, 2-((12aS,6aR)-4-methoxy-7,7-dimethyl-2-phenyl(7,12,12a,6a-tetrahydrochromano[4,3-b]quinolin-9-yl))-1,1,1,3,3,3-hexafluoropropan-2-ol]",5.3
21,"CCOc1ccc2c(c1)C(C)(C)C1COc3c(OC)ccc(Br)c3C1N2 (centres unmarked) [Number 78, 1-bromo-9-ethoxy-4-methoxy-7,7-dimethyl-7,12,12a,6a-tetrahydrochromano[4,3-b]quinoline]",2.7
22,"COc1ccc(Br)c2c1OCC1C2Nc2ccc(-c3cnco3)cc2C1(C)C (centres unmarked) [Number 79, 1-bromo-4-methoxy-7,7-dimethyl-9-(1,3-oxazol-5-yl)-7,12,12a,6a-tetrahydrochromano[4,3-b]quinoline]",4.1
23,"COc1ccc(Br)c2c1OCC1C2Nc2ccc(C(C)=O)cc2C1(C)C (centres unmarked) [Number 80, 1-(1-bromo-4-methoxy-7,7-dimethyl-7,12,12a,6a-tetrahydrochromano[4,3-b]quinolin-9-yl)ethan-1-one]",4.3
24,"COc1ccc(Br)c2c1OCC1C2Nc2ccc(C(N)=O)cc2C1(C)C (centres unmarked) [Number 81, 1-bromo-4-methoxy-7,7-dimethyl-7,12,12a,6a-tetrahydrochromano[4,3-b]quinoline-9-carboxamide]",1.9
25,"COc1ccc(Br)c2c1OCC1C2Nc2ccc(C(N)=S)cc2C1(C)C (centres unmarked) [Number 82, amino(1-bromo-4-methoxy-7,7-dimethyl(7,12,12a,6a-tetrahydrochromano[4,3-b]quinolin-9-yl))methane-1-thione]",2.0
26,"COc1ccc(Br)c2c1OCC1C2Nc2ccc(OC(C)C)cc2C1(C)C (centres unmarked) [Number 83, 1-bromo-4-methoxy-7,7-dimethyl-9-(methylethoxy)-7,12,12a,6a-tetrahydrochromano[4,3-b]quinoline]",2.7
27,"COc1cccc2c1[C@H]1Nc3ccc(Cc4nnn[nH]4)cc3C(C)(C)[C@H]1CO2 [Number 84, (12aS,6aR)-1-methoxy-7,7-dimethyl-9-(1,2,3,4-tetraazol-5-ylmethyl)-7,12,12a,6a-tetrahydrochromano[4,3-b]quinoline]",8.6
28,"COc1cccc2c1[C@H]1Nc3ccc(Br)cc3C(C)(C)[C@H]1CO2 [Number 85, (12aS,6aR)-9-bromo-1-methoxy-7,7-dimethyl-7,12,12a,6a-tetrahydrochromano[4,3-b]quinoline]",8.0
29,"COc1cccc2c1OC[C@H]1[C@@H]2Nc2ccc(Br)cc2C1(C)C [Number 86, (12aS,6aR)-9-bromo-4-methoxy-7,7-dimethyl-7,12,12a,6a-tetrahydrochromano[4,3-b]quinoline]",8.4
